Active and inactive are the calls of the source. Rule as the data show it, for most assays here: actives have a measured Kd and inactives only a lower limit.
Columns and labels:
[1] = molecular target: T1, Ras-related protein Rab-10 (Homo sapiens, UniProt P61026)
T1 sequence (P61026 whole entry): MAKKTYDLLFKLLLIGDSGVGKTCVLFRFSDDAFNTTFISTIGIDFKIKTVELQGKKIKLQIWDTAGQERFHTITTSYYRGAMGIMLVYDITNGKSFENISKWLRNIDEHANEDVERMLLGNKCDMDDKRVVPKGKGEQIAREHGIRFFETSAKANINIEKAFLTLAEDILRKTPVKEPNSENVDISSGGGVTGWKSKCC

[2] = molecular target: Mitogen-activated protein kinase 9 (Homo sapiens, UniProt P45984)
Mitogen-activated protein kinase 9, sequence (P45984 whole entry): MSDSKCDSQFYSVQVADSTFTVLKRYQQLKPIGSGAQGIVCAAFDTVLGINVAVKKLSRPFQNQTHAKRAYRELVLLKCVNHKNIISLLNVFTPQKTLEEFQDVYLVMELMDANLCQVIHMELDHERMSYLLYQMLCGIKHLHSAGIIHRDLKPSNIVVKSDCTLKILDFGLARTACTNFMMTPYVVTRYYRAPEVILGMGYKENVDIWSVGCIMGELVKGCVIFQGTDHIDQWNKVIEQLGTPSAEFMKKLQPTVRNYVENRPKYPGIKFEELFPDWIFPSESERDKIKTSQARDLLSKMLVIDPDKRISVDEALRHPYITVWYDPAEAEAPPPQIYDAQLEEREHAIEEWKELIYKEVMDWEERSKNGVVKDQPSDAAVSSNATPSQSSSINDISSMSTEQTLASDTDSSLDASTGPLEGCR

[3] = molecular target: Serine/threonine-protein kinase B-raf (Homo sapiens, UniProt P15056)
Serine/threonine-protein kinase B-raf, sequence (P15056 whole entry): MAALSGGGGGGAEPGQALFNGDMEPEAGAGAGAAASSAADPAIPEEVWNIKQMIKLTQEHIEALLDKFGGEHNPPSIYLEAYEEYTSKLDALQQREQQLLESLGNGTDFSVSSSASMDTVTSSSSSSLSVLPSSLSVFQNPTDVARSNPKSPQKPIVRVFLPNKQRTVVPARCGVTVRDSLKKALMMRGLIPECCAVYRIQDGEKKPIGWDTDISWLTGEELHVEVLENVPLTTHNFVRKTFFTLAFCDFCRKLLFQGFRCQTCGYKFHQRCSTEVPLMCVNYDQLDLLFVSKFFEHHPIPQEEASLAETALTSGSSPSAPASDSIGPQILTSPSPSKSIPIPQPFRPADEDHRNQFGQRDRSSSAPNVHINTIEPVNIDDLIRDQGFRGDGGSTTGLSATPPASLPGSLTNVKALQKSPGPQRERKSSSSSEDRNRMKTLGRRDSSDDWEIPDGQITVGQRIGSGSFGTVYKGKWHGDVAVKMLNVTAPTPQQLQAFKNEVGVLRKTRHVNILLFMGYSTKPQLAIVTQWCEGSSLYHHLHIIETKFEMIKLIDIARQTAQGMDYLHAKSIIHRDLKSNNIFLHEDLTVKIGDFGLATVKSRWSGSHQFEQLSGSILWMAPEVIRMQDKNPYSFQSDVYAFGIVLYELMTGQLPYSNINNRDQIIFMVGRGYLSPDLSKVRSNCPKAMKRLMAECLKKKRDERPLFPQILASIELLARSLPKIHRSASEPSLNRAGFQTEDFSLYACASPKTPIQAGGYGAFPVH

[4] = molecular target: Tyrosine-protein kinase Fyn (Homo sapiens, UniProt P06241)
Tyrosine-protein kinase Fyn, sequence (P06241 whole entry): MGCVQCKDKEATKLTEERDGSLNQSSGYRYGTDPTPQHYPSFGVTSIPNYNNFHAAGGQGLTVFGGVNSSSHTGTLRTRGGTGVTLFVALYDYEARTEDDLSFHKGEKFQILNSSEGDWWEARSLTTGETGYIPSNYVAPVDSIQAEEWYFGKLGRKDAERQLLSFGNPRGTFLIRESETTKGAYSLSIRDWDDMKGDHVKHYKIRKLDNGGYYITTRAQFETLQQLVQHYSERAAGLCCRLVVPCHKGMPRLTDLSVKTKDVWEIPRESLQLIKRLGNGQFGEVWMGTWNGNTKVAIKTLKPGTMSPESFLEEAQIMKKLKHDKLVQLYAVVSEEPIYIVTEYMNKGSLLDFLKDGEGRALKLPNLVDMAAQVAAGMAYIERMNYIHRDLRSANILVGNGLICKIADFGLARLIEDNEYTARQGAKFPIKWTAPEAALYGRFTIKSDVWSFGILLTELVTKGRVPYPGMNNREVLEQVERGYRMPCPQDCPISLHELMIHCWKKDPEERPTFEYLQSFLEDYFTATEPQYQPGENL

[5] = molecular target: T2, Ras-related protein Rab-27A (Homo sapiens, UniProt P51159)
T2 sequence (P51159 whole entry): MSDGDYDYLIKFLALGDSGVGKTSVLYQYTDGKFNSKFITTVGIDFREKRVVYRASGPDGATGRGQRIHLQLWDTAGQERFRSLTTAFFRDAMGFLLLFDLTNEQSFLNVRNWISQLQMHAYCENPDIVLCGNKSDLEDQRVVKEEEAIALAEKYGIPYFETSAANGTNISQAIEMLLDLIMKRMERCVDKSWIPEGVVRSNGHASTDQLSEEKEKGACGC

[6] = molecular target: Macrophage-stimulating protein receptor (Homo sapiens, UniProt Q04912)
Macrophage-stimulating protein receptor, sequence (Q04912 25-304 limits assumed): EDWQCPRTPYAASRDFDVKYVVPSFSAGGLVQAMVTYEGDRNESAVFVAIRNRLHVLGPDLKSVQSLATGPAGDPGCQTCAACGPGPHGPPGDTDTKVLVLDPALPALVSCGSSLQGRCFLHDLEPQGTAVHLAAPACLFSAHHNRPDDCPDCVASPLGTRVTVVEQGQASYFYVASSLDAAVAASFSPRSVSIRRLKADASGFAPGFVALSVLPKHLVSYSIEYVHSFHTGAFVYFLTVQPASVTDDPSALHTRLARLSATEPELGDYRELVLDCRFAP
Macrophage-stimulating protein receptor, sequence (Q04912 310-1400 limits assumed): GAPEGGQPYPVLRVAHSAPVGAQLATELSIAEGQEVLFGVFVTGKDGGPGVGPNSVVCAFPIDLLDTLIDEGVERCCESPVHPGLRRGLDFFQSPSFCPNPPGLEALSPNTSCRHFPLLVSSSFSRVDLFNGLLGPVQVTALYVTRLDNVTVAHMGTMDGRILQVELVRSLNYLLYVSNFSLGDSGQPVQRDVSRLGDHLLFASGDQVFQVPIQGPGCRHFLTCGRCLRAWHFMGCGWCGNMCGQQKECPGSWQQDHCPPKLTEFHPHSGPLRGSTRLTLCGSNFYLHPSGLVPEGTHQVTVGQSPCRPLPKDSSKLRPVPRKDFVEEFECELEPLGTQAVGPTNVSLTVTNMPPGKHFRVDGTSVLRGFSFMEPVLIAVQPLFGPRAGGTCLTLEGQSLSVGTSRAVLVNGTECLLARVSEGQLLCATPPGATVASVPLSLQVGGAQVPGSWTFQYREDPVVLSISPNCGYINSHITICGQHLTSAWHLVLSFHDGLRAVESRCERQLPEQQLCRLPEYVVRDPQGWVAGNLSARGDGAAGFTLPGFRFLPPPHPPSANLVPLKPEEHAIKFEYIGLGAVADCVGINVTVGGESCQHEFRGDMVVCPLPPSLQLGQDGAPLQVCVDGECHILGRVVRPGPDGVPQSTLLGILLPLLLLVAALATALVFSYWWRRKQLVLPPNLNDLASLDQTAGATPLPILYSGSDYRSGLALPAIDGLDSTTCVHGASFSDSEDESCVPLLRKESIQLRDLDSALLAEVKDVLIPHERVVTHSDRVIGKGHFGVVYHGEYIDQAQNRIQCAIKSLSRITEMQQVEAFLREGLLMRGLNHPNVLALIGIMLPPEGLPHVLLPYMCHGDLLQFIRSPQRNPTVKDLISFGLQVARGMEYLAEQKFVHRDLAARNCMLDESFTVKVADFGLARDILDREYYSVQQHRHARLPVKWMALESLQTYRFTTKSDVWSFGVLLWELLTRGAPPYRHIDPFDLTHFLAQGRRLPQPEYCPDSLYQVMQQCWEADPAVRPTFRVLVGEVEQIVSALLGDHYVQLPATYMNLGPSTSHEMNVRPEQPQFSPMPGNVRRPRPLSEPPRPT

[7] = molecular target: T3, Septin-9 (Homo sapiens, UniProt Q9UHD8)
T3 sequence (Q9UHD8 whole entry): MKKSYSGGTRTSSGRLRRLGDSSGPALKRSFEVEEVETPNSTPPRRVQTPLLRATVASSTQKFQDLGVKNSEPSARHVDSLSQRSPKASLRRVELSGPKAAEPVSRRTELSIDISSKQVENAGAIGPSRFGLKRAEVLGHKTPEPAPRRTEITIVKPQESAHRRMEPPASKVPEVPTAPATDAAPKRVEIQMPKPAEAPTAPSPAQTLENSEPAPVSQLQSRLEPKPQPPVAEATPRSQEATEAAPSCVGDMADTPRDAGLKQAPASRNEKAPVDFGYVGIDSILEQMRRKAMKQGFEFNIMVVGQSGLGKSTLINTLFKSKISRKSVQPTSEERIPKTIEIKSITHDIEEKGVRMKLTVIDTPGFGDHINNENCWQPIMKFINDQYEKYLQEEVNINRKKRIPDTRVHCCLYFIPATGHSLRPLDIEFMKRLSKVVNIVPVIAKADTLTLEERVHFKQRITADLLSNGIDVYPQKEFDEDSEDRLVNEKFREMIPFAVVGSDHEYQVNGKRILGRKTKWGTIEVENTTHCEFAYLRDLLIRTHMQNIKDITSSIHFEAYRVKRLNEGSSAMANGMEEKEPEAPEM

[8] = molecular target: T4, Serine/threonine-protein kinase ULK1 (Homo sapiens, UniProt O75385)
T4 sequence (O75385 whole entry): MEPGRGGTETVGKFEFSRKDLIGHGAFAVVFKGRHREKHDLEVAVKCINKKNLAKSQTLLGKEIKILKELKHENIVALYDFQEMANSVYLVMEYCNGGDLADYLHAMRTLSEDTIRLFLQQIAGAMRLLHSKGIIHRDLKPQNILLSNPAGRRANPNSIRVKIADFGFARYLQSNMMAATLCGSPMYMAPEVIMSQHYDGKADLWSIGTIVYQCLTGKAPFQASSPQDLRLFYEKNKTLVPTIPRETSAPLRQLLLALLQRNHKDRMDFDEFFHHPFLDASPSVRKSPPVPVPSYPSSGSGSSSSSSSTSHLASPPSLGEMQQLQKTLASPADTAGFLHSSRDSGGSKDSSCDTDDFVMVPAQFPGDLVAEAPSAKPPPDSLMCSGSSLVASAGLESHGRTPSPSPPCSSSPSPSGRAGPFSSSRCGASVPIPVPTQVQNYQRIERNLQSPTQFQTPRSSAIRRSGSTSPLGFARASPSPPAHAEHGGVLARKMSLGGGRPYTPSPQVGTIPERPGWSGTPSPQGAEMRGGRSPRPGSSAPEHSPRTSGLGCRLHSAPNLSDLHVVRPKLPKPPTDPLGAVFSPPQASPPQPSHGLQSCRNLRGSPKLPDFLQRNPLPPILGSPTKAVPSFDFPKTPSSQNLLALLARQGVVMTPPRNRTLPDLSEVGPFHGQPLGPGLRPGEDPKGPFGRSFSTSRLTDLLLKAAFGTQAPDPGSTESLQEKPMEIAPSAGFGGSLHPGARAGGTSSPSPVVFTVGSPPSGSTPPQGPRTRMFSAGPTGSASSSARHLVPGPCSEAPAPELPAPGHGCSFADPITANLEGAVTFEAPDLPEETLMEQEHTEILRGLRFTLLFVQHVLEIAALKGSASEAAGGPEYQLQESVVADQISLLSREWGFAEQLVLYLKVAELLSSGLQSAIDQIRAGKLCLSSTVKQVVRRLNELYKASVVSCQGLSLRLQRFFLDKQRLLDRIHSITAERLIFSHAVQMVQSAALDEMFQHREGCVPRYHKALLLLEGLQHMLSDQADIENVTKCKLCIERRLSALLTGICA

[9] = molecular target: GTP-binding nuclear protein Ran (Homo sapiens, UniProt P62826)
Also: in the data inactive means no Kd found up to 30 µM.

| Compound | Kd [1] | Kd [2] | Kd [3] | Kd [4] | Kd [5] | Kd [6] | Kd [7] | Kd [8] | Kd [9] |
| --- | --- | --- | --- | --- | --- | --- | --- | --- | --- |
| c1cc(OCCN2CCCCC2)cc(-c2n[nH]c3ccc(-c4nc[nH]n4)cc23)c1 [CC-401] | > 30 µM (inactive) | 0.34 µM (active) | > 30 µM (inactive) | > 30 µM (inactive) | > 30 µM (inactive) | > 30 µM (inactive) | > 30 µM (inactive) | > 30 µM (inactive) | > 30 µM (inactive) |
| CC1(COc2ccc3c(c2)ncn3-c2ccc3cccc(N4CCC(N)CC4)c3n2)COC1 [CRENOLANIB] | > 30 µM (inactive) | > 30 µM (inactive) | > 30 µM (inactive) | > 30 µM (inactive) | > 30 µM (inactive) | > 30 µM (inactive) | > 30 µM (inactive) | 0.839 µM (active) | > 30 µM (inactive) |
| CC[C@@](C)(Nc1ccnc(-c2c[nH]c3ncccc23)n1)C(=O)NCC(F)(F)F [DECERNOTINIB] | > 30 µM (inactive) | > 30 µM (inactive) | > 30 µM (inactive) | > 30 µM (inactive) | > 30 µM (inactive) | > 30 µM (inactive) | > 30 µM (inactive) | > 30 µM (inactive) | > 30 µM (inactive) |
| CNC(=O)c1ccc(Nc2ncc(C(F)(F)F)c(NCc3nccnc3N(C)S(C)(=O)=O)n2)cc1 [DEFACTINIB] | > 30 µM (inactive) | > 30 µM (inactive) | > 30 µM (inactive) | > 30 µM (inactive) | > 30 µM (inactive) | > 30 µM (inactive) | > 30 µM (inactive) | > 30 µM (inactive) | > 30 µM (inactive) |
| COc1cc(Nc2ncc(F)c(Nc3ccc4c(n3)N(COP(=O)(O)O)C(=O)C(C)(C)O4)n2)cc(OC)c1OC [FOSTAMATINIB] | > 30 µM (inactive) | 1.53 µM (active) | > 30 µM (inactive) | > 30 µM (inactive) | > 30 µM (inactive) | 2.13 µM (active) | > 30 µM (inactive) | > 30 µM (inactive) | > 30 µM (inactive) |
| CCc1nc(C(N)=O)c(Nc2ccc(N3CCC(N4CCN(C)CC4)CC3)c(OC)c2)nc1NC1CCOCC1 [GILTERITINIB] | > 30 µM (inactive) | 0.43 µM (active) | > 30 µM (inactive) | > 30 µM (inactive) | > 30 µM (inactive) | 0.804 µM (active) | > 30 µM (inactive) | > 30 µM (inactive) | 0.759 µM |
| C#Cc1cccc(Nc2ncnc3cc4c(cc23)OCCOCCOCCO4)c1 [ICOTINIB] | > 30 µM (inactive) | > 30 µM (inactive) | > 30 µM (inactive) | > 30 µM (inactive) | > 30 µM (inactive) | > 30 µM (inactive) | > 30 µM (inactive) | > 30 µM (inactive) | > 30 µM (inactive) |
| COc1cccc2cc(-c3nc([C@H]4CC[C@H](C(=O)O)CC4)n4ncnc(N)c34)[nH]c12 [OSI-027] | > 30 µM (inactive) | > 30 µM (inactive) | > 30 µM (inactive) | > 30 µM (inactive) | > 30 µM (inactive) | > 30 µM (inactive) | > 30 µM (inactive) | > 30 µM (inactive) | > 30 µM (inactive) |
| O=C(Nc1ccc(OC(F)(F)F)cc1)c1sccc1NCc1ccnc2ccccc12 [OSI-930] | > 30 µM (inactive) | > 30 µM (inactive) | > 30 µM (inactive) | > 30 µM (inactive) | > 30 µM (inactive) | > 30 µM (inactive) | > 30 µM (inactive) | > 30 µM (inactive) | > 30 µM (inactive) |
| C=CC(=O)Nc1cc(Nc2nccc(-c3cn(C)c4ccccc34)n2)c(OC)cc1N(C)CCN(C)C [OSIMERTINIB] | > 30 µM (inactive) | > 30 µM (inactive) | > 30 µM (inactive) | > 30 µM (inactive) | > 30 µM (inactive) | > 30 µM (inactive) | > 30 µM (inactive) | > 30 µM (inactive) | > 30 µM (inactive) |
| FC(F)(F)c1ccc(CNc2ccc(Cc3c[nH]c4ncc(Cl)cc34)cn2)cn1 [PEXIDARTINIB] | > 30 µM (inactive) | > 30 µM (inactive) | > 30 µM (inactive) | > 30 µM (inactive) | > 30 µM (inactive) | > 30 µM (inactive) | > 30 µM (inactive) | > 30 µM (inactive) | > 30 µM (inactive) |
| CC(C)CC(=O)Nc1[nH]nc2c1CN(C(=O)C1CCN(C)CC1)C2(C)C [PHA-793887] | > 30 µM (inactive) | > 30 µM (inactive) | > 30 µM (inactive) | > 30 µM (inactive) | > 30 µM (inactive) | > 30 µM (inactive) | > 30 µM (inactive) | 0.838 µM | > 30 µM (inactive) |
| O=C(NC[C@H](O)CO)c1ccncc1Nc1ccc(I)cc1F [PIMASERTIB] | > 30 µM (inactive) | > 30 µM (inactive) | > 30 µM (inactive) | > 30 µM (inactive) | > 30 µM (inactive) | > 30 µM (inactive) | > 30 µM (inactive) | > 30 µM (inactive) | > 30 µM (inactive) |
| COc1cc(F)c(F)c(Nc2ccc(I)cc2F)c1NS(=O)(=O)C1(C[C@H](O)CO)CC1 [REFAMETINIB] | > 30 µM (inactive) | > 30 µM (inactive) | > 30 µM (inactive) | > 30 µM (inactive) | > 30 µM (inactive) | > 30 µM (inactive) | > 30 µM (inactive) | > 30 µM (inactive) | > 30 µM (inactive) |
| COCCN1CCN(Cc2ccc(-c3n[nH]c4c3C(=O)c3c(NC(=O)NN5CCOCC5)cccc3-4)cc2)CC1 [RGB-286638] | > 30 µM (inactive) | 0.37 µM (active) | > 30 µM (inactive) | > 30 µM (inactive) | > 30 µM (inactive) | > 30 µM (inactive) | > 30 µM (inactive) | > 30 µM (inactive) | > 30 µM (inactive) |
| CN1CCN(c2nc(C3=C(c4c[nH]c5ccccc45)C(=O)NC3=O)c3ccccc3n2)CC1 [SOTRASTAURIN] | > 30 µM (inactive) | > 30 µM (inactive) | > 30 µM (inactive) | > 30 µM (inactive) | > 30 µM (inactive) | > 30 µM (inactive) | > 30 µM (inactive) | > 30 µM (inactive) | > 30 µM (inactive) |
| CNC(=O)c1cc(COc2nnc(Nc3ccc(Cl)cc3)c3ccoc23)ccn1 [TELATINIB] | > 30 µM (inactive) | > 30 µM (inactive) | > 30 µM (inactive) | > 30 µM (inactive) | > 30 µM (inactive) | > 30 µM (inactive) | > 30 µM (inactive) | > 30 µM (inactive) | > 30 µM (inactive) |

— ChEMBL document CHEMBL3991601, “The target landscape of clinical kinase drugs” (Science, 2017)
